# Test results: patent publication US20070213226A1, “AGROCHEMICAL COMPOSITIONS COMPRISING ALKYLENEDIOL-MODIFIED POLYSILOXANES” (priority 2006, published 2007)
# Key:
# [1] = test system: Senna tora (sickle senna); experiment: Field trial, herbicide control of Senna tora, with and without simulated rain; format: in vivo; conditions: 30 days after treatment, 720 g ae/ha
# Excerpt: Statistical calculations were done on the means.
# [2] = test system: Poa pratensis (meadowgrass or Kentucky blue grass); experiment: Greenhouse trial, sulfonylurea herbicides for grass weed control; format: in vivo; conditions: mean of 3 replicates ± SD
# Procedure: Greenhouse trials were carried out where the effect of ADS-1 on the efficacy of the sulfonylurea herbicides nicosulfuron (4.2% SC Motivell from BASF) and rimsulfuron (25% WG Cato from Dupont) for grass weed control was tested. Seed of the grass Poa pratensis (meadowgrass or Kentucky blue grass) was densely sown in pots and grown for 6 weeks until reaching a height of about 25 cm. The herbicides were tank mixed with the adjuvant ADS-1 at doses given also in the table. […] Researchers trained in the art have knowledge about such technology, and about the method of assessment.
structure (smiles),measurement,setting,value
"O=C(O)CNCP(=O)(O)O [Glyphosate, glyphosate]",Control (%) of Senna tora,[1]; with 4 mm rain aftertreatment,75.0 d %
same,Control (%) of Senna tora,[1]; without rain aftertreatment,96.0 a %
"CCS(=O)(=O)c1cccnc1S(=O)(=O)NC(=O)Nc1nc(OC)cc(OC)n1 [Rimsulfuron, rimsulfuron]",% Control,"[2]; Table 10, dose/ha 10 g Cato",43 ± 6%
"COc1cc(OC)nc(NC(=O)NS(=O)(=O)c2ncccc2C(=O)N(C)C)n1 [Nicosulfuron, nicosulfuron]",% Control,"[2]; Table 9, dose/ha 25 ml Motivell",87 ± 3%
